In one assay the test system is estrogen receptors. Nature of the assay: inhibition of the binding of the estrogen receptors to the helical segment of coactivator proteins. The following applies: result in words. On the procedure: (§1) The synthetic helicormimetic peptides designed as antagonists of the estrogen receptor-coactivator interactions were tested in a competition binding assay (Lilly Research Labs) against a model linear peptide sequence. Activities are reported in the Table below in Ki values, with two of the best analogs labeled as PERM-1 and PERM-2, or Peptidomimetic Estrogen Receptor Modulators.

Another assay concerns the target T1, ER alpha (Homo sapiens, UniProt P03372).
T1 sequence (P03372 1-595): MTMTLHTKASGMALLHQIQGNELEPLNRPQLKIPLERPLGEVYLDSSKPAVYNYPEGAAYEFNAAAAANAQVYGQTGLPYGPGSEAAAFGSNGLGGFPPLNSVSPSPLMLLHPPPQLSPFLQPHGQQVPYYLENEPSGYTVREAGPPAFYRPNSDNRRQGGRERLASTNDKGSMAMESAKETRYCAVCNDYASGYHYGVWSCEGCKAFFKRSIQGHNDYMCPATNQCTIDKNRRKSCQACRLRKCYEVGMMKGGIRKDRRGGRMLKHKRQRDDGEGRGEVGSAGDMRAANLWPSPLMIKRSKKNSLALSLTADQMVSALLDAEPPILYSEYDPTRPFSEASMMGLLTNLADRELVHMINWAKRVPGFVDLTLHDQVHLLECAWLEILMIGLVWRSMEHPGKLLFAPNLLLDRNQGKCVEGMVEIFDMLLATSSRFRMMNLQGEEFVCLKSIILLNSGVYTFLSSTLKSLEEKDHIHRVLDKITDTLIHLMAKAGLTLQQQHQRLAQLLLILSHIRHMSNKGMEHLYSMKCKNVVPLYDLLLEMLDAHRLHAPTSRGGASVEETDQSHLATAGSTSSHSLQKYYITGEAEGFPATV
Kind of assay: competition binding assay against a model linear peptide sequence (estrogen receptor-coactivator interaction), ER alpha. The following applies: competition binding assay (Lilly Research Labs); read-out: Ki ER α. The protocol: as §1

The target in the next assay is ER beta (Homo sapiens, UniProt Q92731). Nature of the assay: competition binding assay against a model linear peptide sequence (estrogen receptor-coactivator interaction), ER beta. The following applies: competition binding assay (Lilly Research Labs); read-out: Ki ER β. On the procedure: as §1
Sequence of ER beta (Q92731 whole entry): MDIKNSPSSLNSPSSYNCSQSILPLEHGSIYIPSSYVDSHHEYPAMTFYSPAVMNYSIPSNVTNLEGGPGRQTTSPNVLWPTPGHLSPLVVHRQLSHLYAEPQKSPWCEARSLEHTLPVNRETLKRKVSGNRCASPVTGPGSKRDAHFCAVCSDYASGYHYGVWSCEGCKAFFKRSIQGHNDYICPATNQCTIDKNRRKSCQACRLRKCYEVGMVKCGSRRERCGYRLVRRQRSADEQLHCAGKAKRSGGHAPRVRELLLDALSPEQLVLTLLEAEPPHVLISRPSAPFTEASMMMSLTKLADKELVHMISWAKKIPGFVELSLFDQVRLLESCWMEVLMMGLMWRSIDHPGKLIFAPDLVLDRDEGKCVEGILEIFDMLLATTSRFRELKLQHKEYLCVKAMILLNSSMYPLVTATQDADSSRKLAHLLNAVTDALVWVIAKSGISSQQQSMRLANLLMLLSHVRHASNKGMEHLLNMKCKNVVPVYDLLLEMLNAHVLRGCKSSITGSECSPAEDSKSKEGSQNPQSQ

Broadly, the Ki is the equilibrium dissociation constant of an inhibitor or competing ligand from its target.

Positions of bridges follow the written chain, without caps; N, C: chain ends. Non-standard residues stand in square brackets, D forms with d. Residues, ends and D or L forms follow the SMILES beside them. d(hCys) = N[C@H](CCS)C(=O)O

For “Leu-Asn-Gln-Leu-Leu (LNQLL; printed: Leu-Asn-Gln-Leu-Leu)”, the “inhibitory activity on binding of estrogen receptors to helical segment of coactivator proteins” value in the assay with estrogen receptors is recorded as “do not display any inhibitory activity”.

In the case of `CC[C@H](C)[C@@H]1NC(=O)[C@@H](NC(=O)[C@@H](N)CCCCN)CSSC[C@H](C(=O)N[C@@H](CCCNC(=N)N)C(=O)N[C@@H](CC(C)C)C(=O)N[C@@H](CC(C)C)C(=O)N[C@@H](CCC(N)=O)C(N)=O)NC(=O)[C@H](CC(C)C)NC1=O` [AKG-I-60, H-Lys-cyclo(Cys-Ile-Leu-D-Cys)-Arg-Leu-Leu-Gln-NH2] (H-KCIL[dC]RLLQ-NH2; disulfide 2-5), the values for the Ki on ER alpha and at ER beta were 2.4 µM and 7.2 µM, respectively.

With `CC[C@H](C)[C@@H]1NC(=O)[C@H](NC(=O)[C@@H](N)CCCNC(=N)N)CCSSC[C@@H](C(=O)N[C@@H](CCCNC(=N)N)C(=O)N[C@@H](CC(C)C)C(=O)N[C@@H](CC(C)C)C(=O)N[C@@H](CCC(N)=O)C(N)=O)NC(=O)[C@H](CC(C)C)NC1=O` [AKG-II-4, H-Arg-cyclo (DHomoCys-lIe-Leu-Cys)- Arg-Leu-Leu-Gln-NH2] (H-R[d(hCys)]ILCRLLQ-NH2; disulfide 2-5), the inhibitory constant (Ki) on ER alpha came out at 0.035 µM; on ER beta, 0.591 µM.

In the case of `CC[C@H](C)[C@H](NC(=O)[C@H](CCCCN)NC(=O)[C@H](Cc1c[nH]cn1)NC(=O)[C@@H](N)CCCCN)C(=O)N[C@@H](CC(C)C)C(=O)N[C@@H](Cc1c[nH]cn1)C(=O)N[C@@H](CCCNC(=N)N)C(=O)N[C@@H](CC(C)C)C(=O)N[C@@H](CC(C)C)C(=O)N[C@@H](CCC(N)=O)C(=O)N[C@@H](CC(=O)O)C(=O)N[C@@H](CO)C(=O)N[C@@H](CO)C(=O)O` [AML-I-89/2, H-Lys-His-Lys-Ile-Leu-His-Arg-Leu-Leu-Gln-Asp-Ser-Ser-OH] (H-KHKILHRLLQDSS-OH), the results for the Ki on ER alpha and at ER beta were 0.38 µM and 6.9 µM, respectively.

Take `CC[C@H](C)[C@@H]1NC(=O)[C@H](NC(=O)[C@H](N)CCCCN)CSSC[C@@H](C(=O)N[C@@H](CCCNC(=N)N)C(=O)N[C@@H](CC(C)C)C(=O)N[C@@H](CC(C)C)C(=O)N[C@@H](CCC(N)=O)C(N)=O)NC(=O)[C@H](CC(C)C)NC1=O` [AKG-I-28, H-D-Lys-cyclo (D-Cys-Ile-Leu-Cys)-Arg-Leu-Leu-Gln-NH2] (H-[dK][dC]ILCRLLQ-NH2; disulfide 2-5): the Ki at ER alpha amounted to 0.22 µM; on ER beta it was 1.9 µM.

The values are drawn from US20050054770A1, “Helicomimetics and stabilized lxxll peptidomimetics” (priority 2001, published 2005).
